Source: publication PMC9295122, “Sialic Acid Derivatives Inhibit SiaT Transporters and Delay Bacterial Growth” (ACS Chemical Biology, 2022)

Tests used:
SaSiaT = SaSiaT (Staphylococcus aureus, UniProt A0A0H2XJ46); experiment: [3H]Neu5Ac efflux in proteoliposomes, SaSiaT; format: biochemical; settings: 0.1 mM external compound
Protocol: Figure 5 Kinetic analysis of the inhibition of recombinant SiaT from P. mirabilis (A,B) and S. aureus (C,D) reconstituted in proteoliposomes and [^3H]Neu5Ac efflux in proteoliposomes (E,F). (a–d) Data were plotted according to Lineweaver–Burk as a reciprocal transport rate vs reciprocal Neu5Ac concentration. The transport rate was measured, in 5 min, by adding [^3H] Neu5Ac at the indicated concentrations to proteoliposomes containing 20 mM K^+-gluconate in the presence of valinomycin as described in the Supporting Information. [(A,B) P. mirabilis SiaT]; (A) compound 3f 0.25 μM (●) or 0.75 μM (□) was added in comparison to samples without inhibitor (○). […] Data are calculated as the percent of residual activity with respect to the control sample (efflux time zero). […]
For uptake experiments, 600 μL of proteoliposomes were loaded onto a Sephadex G-75 column (0.7 cm diameter × 15 cm height), pre-equilibrated with 20 mM Hepes Tris pH 7.0 with 40 mM sucrose to balance the internal osmolarity. […] For kinetic measurement, the initial transport rate was measured by stopping the reaction after 5 min, that is, within the initial linear range of [^3H]-Neu5Ac uptake into the proteoliposomes previously described. […] Proteoliposomes were eluted with 1 mL of 50 mM NaCl and collected in a 4 mL of scintillation mixture, vortexed and counted.

SiaT from S. aureus = SiaT from S. aureus (Staphylococcus aureus, UniProt A0A0H2XJ46); experiment: [3H]Neu5Ac uptake in proteoliposomes, SaSiaT; settings: for type of inhibition: SaSiaT, Lineweaver–Burk plot
SiaT from S. aureus, sequence (A0A0H2XJ46 entry or part of it): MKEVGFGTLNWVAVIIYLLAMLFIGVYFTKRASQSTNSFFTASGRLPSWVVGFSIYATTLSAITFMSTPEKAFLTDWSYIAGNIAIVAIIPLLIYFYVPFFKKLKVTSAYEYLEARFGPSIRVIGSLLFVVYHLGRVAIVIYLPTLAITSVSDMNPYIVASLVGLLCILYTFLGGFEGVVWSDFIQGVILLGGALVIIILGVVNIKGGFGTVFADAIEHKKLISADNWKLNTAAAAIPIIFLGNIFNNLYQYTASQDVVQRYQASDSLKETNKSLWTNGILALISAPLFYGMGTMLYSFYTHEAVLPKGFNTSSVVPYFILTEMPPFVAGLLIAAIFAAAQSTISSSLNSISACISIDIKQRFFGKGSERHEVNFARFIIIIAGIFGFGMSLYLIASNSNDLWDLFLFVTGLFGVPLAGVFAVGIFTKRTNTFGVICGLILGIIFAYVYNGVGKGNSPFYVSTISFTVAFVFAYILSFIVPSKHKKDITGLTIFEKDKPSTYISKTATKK
Protocol: To gain further insights into the molecular mechanisms, we investigated the direct effects of compounds 3e and 3f on the transport activity in proteoliposomes reconstituted with PmSiaT and SaSiaT. A kinetic analysis was performed by measuring the concentration-dependent uptake of [^3H]Neu5Ac in the presence of two different concentrations of the inhibitors 3f (Figure 5a,c) or 3e (Figure 5b,d).
Figure 5 Kinetic analysis of the inhibition of recombinant SiaT from P. mirabilis (A,B) and S. aureus (C,D) reconstituted in proteoliposomes and [^3H]Neu5Ac efflux in proteoliposomes (E,F). (a–d) Data were plotted according to Lineweaver–Burk as a reciprocal transport rate vs reciprocal Neu5Ac concentration. The transport rate was measured, in 5 min, by adding [^3H] Neu5Ac at the indicated concentrations to proteoliposomes containing 20 mM K^+-gluconate in the presence of valinomycin as described in the Supporting Information. [(A,B) P. mirabilis SiaT]; (A) compound 3f 0.25 μM (●) or 0.75 μM (□) was added in comparison to samples without inhibitor (○). (B) Compound 3e 12 μM (●) or 40 μM (□) was added in comparison to samples without an inhibitor (○). [(C,D) S. aureus SiaT]. (C) Compound 3f 80 μM (●) or 200 μM (□) was added in comparison to samples without an inhibitor (○). (D) Compound 3e 5 μM (●) or 12 μM (□) was added in comparison to samples without an inhibitor (○). Results are mean ± s.d. from four independent experiments (n = 4). […] Data are calculated as the percent of residual activity with respect to the control sample (efflux time zero). The results are the means ± s.d. of three independent experiments.
The purified SiaT from P. mirabilis and S. aureus was reconstituted by using the detergent removal procedure with the batchwise method previously pointed out.[16],[21] In brief, 2.5 μg or 5 μg of P. mirabilis and S. aureus SiaT, respectively, were mixed with 120 μL 10% C12E8, 100 μL of 10% egg yolk phospholipids (w/v, in the form of sonicated liposomes as previously described),[43] […]
For uptake experiments, 600 μL of proteoliposomes were loaded onto a Sephadex G-75 column (0.7 cm diameter × 15 cm height), pre-equilibrated with 20 mM Hepes Tris pH 7.0 with 40 mM sucrose to balance the internal osmolarity. […] For kinetic measurement, the initial transport rate was measured by stopping the reaction after 5 min, that is, within the initial linear range of [^3H]-Neu5Ac uptake into the proteoliposomes previously described. […] In both uptake and efflux experiments, the transport assay was terminated by loading each proteoliposome sample (100 μL) on a Sephadex G-75 column (0.6 cm diameter × 8 cm height) to remove the external radioactivity. Proteoliposomes were eluted with 1 mL of 50 mM NaCl and collected in a 4 mL of scintillation mixture, vortexed and counted.

SaSiaT, sequence (A0A0H2XJ46 entry or part of it): as above

Row | SMILES | [3H]Neu5Ac efflux induced (SaSiaT) | Ki (SiaT from S. aureus) | type of inhibition (SiaT from S. aureus)
1 | CC(=O)NC1C(OCc2cc(F)cc(F)c2)CC(O)(C(=O)O)OC1C(O)C(O)CO (stereo not drawn) [Compound 3e] | to the same extent as Neu5Ac | 2.8 ± 0.5 µM | competitive inhibitors
2 | CC(=O)NC1C(OCc2cc(Br)cc(Br)c2)CC(O)(C(=O)O)OC1C(O)C(O)CO (stereo not drawn) [Compound 3f] | negligible | 53.6 ± 11.1 µM | competitive inhibitors
